Test results from publication PMC5059743, “Crystal structures of the human elongation factor eEFSec suggest a non-canonical mechanism for selenocysteine incorporation” (Nature Communications, 2016).
Residue numbers refer to the chain shown, from its start.

Assays:
Test in all cases: isothermal titration calorimetry
Type in all cases: binding
[1] = biological target: T1, human eEFSec (Homo sapiens, UniProt P57772)
T1 construct: intact full-length, N-terminal 6xHis tag (pET15b, no tag removal described), E. coli Lemo21(DE3); monomer in solution; SeMet form also made for phasing
T1 sequence (P57772 1-596): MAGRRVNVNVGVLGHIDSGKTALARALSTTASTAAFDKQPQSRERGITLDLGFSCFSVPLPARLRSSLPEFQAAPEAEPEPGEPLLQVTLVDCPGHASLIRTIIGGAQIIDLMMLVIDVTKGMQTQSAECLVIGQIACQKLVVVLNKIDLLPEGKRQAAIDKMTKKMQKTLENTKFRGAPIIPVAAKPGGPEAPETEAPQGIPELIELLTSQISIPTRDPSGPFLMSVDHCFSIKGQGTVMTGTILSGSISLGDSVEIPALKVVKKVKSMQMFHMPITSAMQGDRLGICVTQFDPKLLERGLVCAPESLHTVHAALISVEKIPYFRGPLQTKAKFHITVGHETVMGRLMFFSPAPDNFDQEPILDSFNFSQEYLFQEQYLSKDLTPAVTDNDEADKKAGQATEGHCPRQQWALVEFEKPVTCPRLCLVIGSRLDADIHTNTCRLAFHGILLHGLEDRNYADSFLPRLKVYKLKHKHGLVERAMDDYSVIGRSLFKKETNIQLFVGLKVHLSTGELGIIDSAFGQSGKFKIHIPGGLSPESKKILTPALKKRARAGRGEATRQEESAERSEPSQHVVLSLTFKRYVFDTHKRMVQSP

[2] = biological target: T2, human eEFSec (Homo sapiens, UniProt P57772, H96A)
T2 construct: intact full-length, N-terminal 6xHis tag (pET15b, no tag removal described), E. coli Lemo21(DE3); monomer in solution; SeMet form also made for phasing
T2 sequence (P57772 1-596 H96A): T1 sequence (P57772 1-596) with H96A

[3] = biological target: T3, human eEFSec (Homo sapiens, UniProt P57772, T48A)
T3 construct: intact full-length, N-terminal 6xHis tag (pET15b, no tag removal described), E. coli Lemo21(DE3); monomer in solution; SeMet form also made for phasing
T3 sequence (P57772 1-596 T48A): T1 sequence (P57772 1-596) with T48A

[4] = biological target: T4, human eEFSec (Homo sapiens, UniProt P57772, D92A)
T4 construct: intact full-length, N-terminal 6xHis tag (pET15b, no tag removal described), E. coli Lemo21(DE3); monomer in solution; SeMet form also made for phasing
T4 sequence (P57772 1-596 D92A): T1 sequence (P57772 1-596) with D92A

| Kd [1] [nM] | Kd [2] [nM] | Kd [3] [nM] | Kd [4] [nM] | SMILES |
| --- | --- | --- | --- | --- |
| 1200 ± 470 |  |  |  | Nc1nc2c(ncn2[C@@H]2O[C@H](COP(=O)(O)OP(=O)(O)NP(=O)(O)O)[C@@H](O)[C@H]2O)c(=O)[nH]1 [GDPNP] |
| 1210 ± 260 | 1600 ± 750 | 1820 ± 110 | 8470 ± 490 | Nc1nc2c(ncn2[C@@H]2O[C@H](COP(=O)(O)OP(=O)(O)OP(=O)(O)O)[C@@H](O)[C@H]2O)c(=O)[nH]1 [GTP] |
| 480 ± 60 |  |  |  | Nc1nc2c(ncn2[C@@H]2O[C@H](COP(=O)(O)OP(=O)(O)OP(O)(O)=S)[C@@H](O)[C@H]2O)c(=O)[nH]1 [GTPγS] |
| 190 ± 50 | 1300 ± 240 | 240 ± 50 | 1500 ± 130 | Nc1nc2c(ncn2[C@@H]2O[C@H](COP(=O)(O)OP(=O)(O)O)[C@@H](O)[C@H]2O)c(=O)[nH]1 [GDP] |

| SMILES | Kd [1] [nM] | Kd [2] [nM] | Kd [3] [nM] | Kd [4] [nM] |
| --- | --- | --- | --- | --- |
| Nc1nc(O)c2ncn([C@@H]3O[C@H](COP(=O)(O)OP(=O)(O)C[P+]([O-])(O)O)[C@@H](O)[C@H]3O)c2n1 [GDPCP] | 1850 ± 240 |  |  |  |
